From patent US20030172478A1, “Bipyrrolinonylidene-type compound, colorant therewith, and method of producton thereof” (DAINIPPON INK AND CHEMICALS, INC., priority 2002, published 2003)

Tests used:
[1] = solubility of the products in solvents; type: physicochemical
[2] = background statement; cited from earlier work

solubility in dimethyl sulfoxide ([1]; solvent dimethyl sulfoxide) | solubility in dimethylformamide ([1]; solvent dimethylformamide) | solubility in ethanol ([1]; solvent ethanol) | SMILES | solubility in water and organic solvents [2]
soluble | soluble | slightly soluble | CCOC(=O)C1=C(c2ccccc2)NC(=O)/C1=C1/C(=O)NC(c2ccccc2)=C1C(=O)OCC [diethyl bipyrrolinonylidenedicarboxylate] | –
– | – | – | O=C1NC(c2ccccc2)=C/C1=C1/C=C(c2ccccc2)NC1=O [formula (b), bipyrrolinonylidene] | poor solubility
